Test results published in patent publication US20100092402A1, “TREATMENT OF RESPIRATORY DISEASE” (Mucokinetica Ltd., priority 2007, published 2010).

Key:
[1] = test system: cystic fibrosis transmembrane regulator (CFTR); test: Short circuit current recording of HBE cells in Ussing chambers (forskolin ΔIsc); format: cell-based, human; settings: for effect on forskolin ΔIsc compared to control: 90 min pre-treatment
Procedure: Differentiated HBE cells grown to confluence at an air-liquid interface for 15 to 29 days were used to study substances for ability to achieve long duration down regulation of the epithelial amiloride-sensitive sodium channel (ENaC).
Step 1: Treatment with substance. For each group of cells treated with a substance, 30 μl of 100 times final concentration of substance was added to the 3 ml basolateral culture medium, mixed and 150 μl of the resultant basolateral fluid was transferred to the apical surface for 5 min. For non-treatment control groups of basolateral fluid with no added substance was transferred to the apical surface. After 5 min. equilibration the excess apical fluid was then transferred back to the basolateral side of the culture well.
Step 2: Variable period of incubation with the substance. Dependent on the individual experiment the cells were returned to the 37° C. incubator for periods of 0 min. to 120 min.
Step 3: Period of substance washout with fresh culture medium. For experiments to study the duration of a substance response the HBE cells on Snapwell inserts were washed with fresh culture medium (no added substance) at 37° C. and placed in fresh 6-well plates containing 3 ml fresh culture medium (no added substance) on the basolateral side. […]
Step 5: Short circuit current (Isc) measurement. […] Silver/silver chloride electrodes (Costar Ltd., UK) were used to monitor Isc, which was recorded continuously throughout each experiment using AcqKnowledge III for MP100WSW data acquisition software (Biopac, Linton Instruments, UK). Transepithelial resistance (RT) was determined every minute by delivering a 5 mV pulse for 3 seconds and recording the change in ISS, over the 3 second period (ΔIsc). RT was calculated using the Ohm's law relationship RT=[V(5 mV)/ΔIsc].
At 37 min. […] The magnitude of the CFTR Isc response to forskolin was determined for each culture by measuring the difference between Isc immediately prior to addition of forskolin and at plateau at approximately 6 min. following addition of the agent (Forskolin ΔIsc)

prostasin = settings: treatment for 24 h; cited from earlier work

N=C(N)c1ccc2cc(OC(=O)c3ccc(N=C(N)N)cc3)ccc2c1 [6-amidino-2-napthyl 4-guanidinobenzoate]
effect on forskolin ΔIsc compared to control ([1]; 1 μM): no significant effect | forskolin response, treatment vs control ([1]; 1 μM, pre-treatment time range 5 min to 60 min): No significant difference | effect on forskolin ΔIsc compared to control ([1]; dose range 30 nM to 3 μM): without effect | prostasin secretion into culture medium (prostasin): reduced prostasin secretion
